Where a name gives a salt, the structure may show the parent alone.
Experiments:
C57BL/6J male mice [1] = experiment: Subcutaneous administration of tetracycline hydrochloride for 10 days to mice fed with HFD for 8 weeks (Example 2); type: in vivo; conditions: for histopathological test of liver: mouse, in vivo, sc
Source text: (§1) In the following Examples and Comparative examples, as an animal for producing a pathologic model animal, C57BL/6J male mice (Nippon CLEA, Inc.) were used. Further, as a high-fat diet (hereinafter referred to as “HFD”), D12492 (fat content: 60 kcal%) (Research Diet Inc.) was used. As a control diet, CE-2 (Nippon CLEA, Inc.) to be used for normal rearing of mice was used. As a tetracycline antibiotic, tetracycline hydrochloride (Sigma Inc.) was used. The administration of tetracycline hydrochloride was carried out by injection of a solution of 0, 10, 30 or 100 mg/10 mL of tetracycline hydrochloride prepared with a 0.5% physiological saline solution. Here, the “solution of 0 mg/10 mL of tetracycline hydrochloride” means a 0.5% physiological saline solution.
20 mice (7 weeks of age) were fed ad libitum with HFD for 8 weeks. Then, the mice were divided into 4 groups (5 mice×4 groups) in such a manner that the body weight and the body fat percentage were equal in the respective groups, and subcutaneously administered with tetracycline hydrochloride at a dose of 0, 30, 60 and 100 mg/kg/day for 10 days (hereinafter, the groups administered with tetracycline hydrochloride at a dose of 0, 30, 60 and 100 mg/kg/day are referred to as “TC 0 group”, “TC 30 group”, “TC 60 group” and “TC 100 group”, respectively). The mice were fed ad libitum with HFD also during the period of administering tetracycline hydrochloride.
The body weight of mice was measured on 3 days before initiation of administration of tetracycline hydrochloride and everyday from the next day until day 11 after initiation of administration thereof. FIG. 12 is a line graph showing the change in the body weight of mice subcutaneously administered with tetracycline hydrochloride for 10 days after feeding them with HFD for 8 weeks. […] Incidentally, in FIG. 12, the term “days” represents the number of days elapsed after initiation of administration of tetracycline hydrochloride.
Blood collection and dissection were carried out in the same manner as in Example 1.
The plasma ALT level, plasma AST level, plasma insulin level and plasma glucose level were measured in the same manner as in Example 1. FIG. 13 is a bar graph showing the plasma ALT level in mice subcutaneously administered with tetracycline hydrochloride for 10 days after feeding them with HFD for 8 weeks. FIG. 14 is a bar graph showing the plasma AST level in mice subcutaneously administered with tetracycline hydrochloride for 10 days after feeding them with HFD for 8 weeks. […] FIG. 15 is a bar graph showing the plasma insulin level in mice subcutaneously administered with tetracycline hydrochloride for 10 days after feeding them with HFD for 8 weeks. […] FIG. 16 is a bar graph showing the plasma glucose level in mice subcutaneously administered with tetracycline hydrochloride for 10 days after feeding them with HFD for 8 weeks.
The hepatic TG level was measured in the same manner as in Example 1. FIG. 17 is a bar graph showing the hepatic TG level in mice subcutaneously administered with tetracycline hydrochloride for 10 days after feeding them with HFD for 8 weeks.
Measurement of Hepatic TNF-α mRNA level and hepatic IL-1β mRNA level The hepatic TNF-α mRNA level and hepatic IL-1β mRNA level were measured in the same manner as in Example 1. FIG. 18 is a bar graph showing the hepatic TNF-α mRNA level in mice subcutaneously administered with tetracycline hydrochloride for 10 days after feeding them with HFD for 8 weeks. FIG. 19 is a bar graph showing the hepatic IL-1β mRNA level in mice subcutaneously administered with tetracycline hydrochloride for 10 days after feeding them with HFD for 8 weeks.
A histopathological test of liver was carried out in the same manner as in Example 1.

C57BL/6J male mice [2] = experiment: Intraperitoneal administration of tetracycline hydrochloride for 10 days to mice fed with HFD for 8 weeks (Example 1); type: in vivo
Source text: as §1
29 mice (6 weeks of age) were divided into a group of 15 mice fed with HFD (hereinafter referred to as an “HFD group”) and a group of 14 mice fed with a control diet (hereinafter referred to as a “control group”). The following experiments related to the HFD group (15 mice) and the control group (14 mice) were assigned to Example 1 and Comparative example 1, respectively.
Feeding of HFD or control diet and intraperitoneal administration of tetracycline hydrochloride First, the mice in the HFD group and the control group were fed ad libitum with HFD and the control diet for 8 weeks, respectively. Then, the mice in the HFD group and the control group were divided into 3 groups, respectively, in such a manner that the body weight and the body fat percentage were equal in the respective groups, thereby to form 3 groups in the HFD group (5 mice×3 groups), and 3 groups in the control group (5 mice×2 groups and 4 mice×1 group). Then, tetracycline hydrochloride was intraperitoneally administered to both the HFD group and the control group at a dose of 0, 10 and 30 mg/kg/day for 10 days (hereinafter, the groups administered with tetracycline hydrochloride at a dose of 0, 10 and 30 mg/kg/day are referred to as “TC 0 group”, “TC 10 group” and “TC 30 group”, respectively). The mice were fed ad libitum with HFD or the control diet also during the period of administering tetracycline hydrochloride.
The body weight of mice was measured on 4 days before initiation of administration of tetracycline hydrochloride and on day 1, 3, 5, 7, 10 and 11 after initiation of administration thereof. FIG. 1 is a line graph showing the change in the body weight of mice intraperitoneally administered with tetracycline hydrochloride for 10 days after feeding them with HFD or the control diet for 8 weeks. […] Incidentally, in FIG. 1, the term “days” represents the number of days elapsed after initiation of administration of tetracycline hydrochloride.
On the next day after completion of administration of tetracycline hydrochloride (on day 11 after initiation of administration), the mice were anesthetized by isoflurane inhalation. After it was Confirmed that the mice lost pain sensation by pinching the tail with forceps, the mice underwent laparotomy and the blood was collected from the abdominal vena cava with a syringe containing heparin. The collected blood was centrifuged at 4° C. for 10 minutes at 7500 rpm thereby to separate plasma. The obtained plasma was cryopreserved. […]
By using the cryopreserved plasma, the plasma ALT level, plasma AST level and plasma glucose level were measured using Hitachi autoanalyzer 7070 (Hitachi Hi Technologies), and the plasma insulin level was measured using an insulin assay kit (Seikagaku Corporation). […]

[3] = HFD 8 weeks, s.c. 30 mg/kg/day for 10 days, vs normal mice
[4] = HFD 8 weeks, s.c. 60 mg/kg/day for 10 days, vs normal mice
[5] = HFD 8 weeks, s.c. 100 mg/kg/day for 10 days, vs normal mice
[6] = HFD 8 weeks, i.p. 30 mg/kg/day for 10 days, vs normal mice
[7] = HFD group (i.p. 0, 10, 30 mg/kg/day for 10 days), vs normal mice

CN(C)[C@@H]1C(O)=C(C(N)=O)C(=O)[C@@]2(O)C(O)=C3C(=O)c4c(O)cccc4[C@@](C)(O)[C@H]3C[C@@H]12 [tetracycline hydrochloride]
plasma ALT level (C57BL/6J male mice [1]; [3]): significantly higher | plasma AST level (C57BL/6J male mice [1]; [3]): significantly higher | plasma insulin level (C57BL/6J male mice [1]; [3]): higher | plasma ALT level (C57BL/6J male mice [1]; [4]): significantly higher | plasma AST level (C57BL/6J male mice [1]; [4]): significantly higher | plasma insulin level (C57BL/6J male mice [1]; [4]): higher | plasma ALT level (C57BL/6J male mice [1]; [5]): significantly higher | plasma AST level (C57BL/6J male mice [1]; [5]): significantly higher | plasma insulin level (C57BL/6J male mice [1]; [5]): equivalent | plasma glucose level (C57BL/6J male mice [1]; HFD 8 weeks, s.c. any group (0, 30, 60, 100 mg/kg/day) for 10 days, vs normal mice): higher | histopathological test of liver (C57BL/6J male mice [1]; 30 mg/kg/day): presence of fatty liver and the invasion of inflammatory cells were observed | histopathological test of liver (C57BL/6J male mice [1]; 60 mg/kg/day): presence of fatty liver and the invasion of inflammatory cells were observed | histopathological test of liver (C57BL/6J male mice [1]; 100 mg/kg/day): presence of fatty liver and the invasion of inflammatory cells were observed | plasma ALT level (C57BL/6J male mice [2]; [6]): significantly higher | plasma AST level (C57BL/6J male mice [2]; [6]): significantly higher | plasma glucose level (C57BL/6J male mice [2]; [7]): equivalent to or higher | plasma insulin level (C57BL/6J male mice [2]; [7]): equivalent to or higher | histopathological test of liver (C57BL/6J male mice [2]; mouse, in vivo, ip, 30 mg/kg/day): presence of fatty liver and the invasion of inflammatory cells were observed

— US20080118436A1, “Pathological Animal Model For Non-Alcoholic Fatty Hepatitis” (priority 2004, published 2008)
